{
  "source": "paper PMC12624743",
  "about": "(ACS Infectious Diseases, 2025)",
  "key": {"[1]": {"test_system": "WT N. gonorrhoeae topoisomerase IV", "experiment": "Topoisomerase IV-catalyzed DNA decatenation assay, WT", "assay_type": "biochemical, Neisseria gonorrhoeae", "settings": "decatenation IC50 vs supercoiling IC50, WT enzymes", "method": "All proteins were His-tagged. N. gonorrhoeae WT gyrase (GyrA, GyrB) and topoisomerase IV (ParC, ParE) subunits as well as mutant GyrA^D90N, GyrA^A92T, GyrA^S91F, and GyrA^S91F/D95G gyrase and ParC^D86N and ParC^S88P topoisomerase IV were prepared as described previously. , N. gonorrhoeae mutant GyrA^D95G gyrase and mutant ParC^S87N and ParC^E91G topoisomerase IV were generated using a QuickChange II XL site-directed mutagenesis kit (Agilent Technologies) with custom primers for the desired mutations. Mutant N. gonorrhoeae GyrA and ParC subunits were expressed and purified as described by Ashley et al. with the following modifications to optimize protein expression and lysis: (1) GyrA^D95G was expressed for 2.5 h and ParC^S87N and ParC^E91G were expressed for 3 h before harvesting, and (2) cells were lysed by sonication using a digital sonifier (Branson). The identities of all constructs were confirmed by DNA sequencing, and all enzymes were stored at −80 °C. In all assays, N. gonorrhoeae gyrase or topoisomerase IV was used as a 1:1 GyrA:GyrB or ParC:ParE mixture, respectively, and the stated enzyme concentration reflects that of the holoenzyme (A2B2). […]"}, "[2]": {"molecular_target": "T1, N. gonorrhoeae gyrase GyrA^D95G (Neisseria gonorrhoeae, UniProt P48371, D95G)", "T1 construct": "His; made in house", "T1 sequence (P48371 whole entry D95G)": "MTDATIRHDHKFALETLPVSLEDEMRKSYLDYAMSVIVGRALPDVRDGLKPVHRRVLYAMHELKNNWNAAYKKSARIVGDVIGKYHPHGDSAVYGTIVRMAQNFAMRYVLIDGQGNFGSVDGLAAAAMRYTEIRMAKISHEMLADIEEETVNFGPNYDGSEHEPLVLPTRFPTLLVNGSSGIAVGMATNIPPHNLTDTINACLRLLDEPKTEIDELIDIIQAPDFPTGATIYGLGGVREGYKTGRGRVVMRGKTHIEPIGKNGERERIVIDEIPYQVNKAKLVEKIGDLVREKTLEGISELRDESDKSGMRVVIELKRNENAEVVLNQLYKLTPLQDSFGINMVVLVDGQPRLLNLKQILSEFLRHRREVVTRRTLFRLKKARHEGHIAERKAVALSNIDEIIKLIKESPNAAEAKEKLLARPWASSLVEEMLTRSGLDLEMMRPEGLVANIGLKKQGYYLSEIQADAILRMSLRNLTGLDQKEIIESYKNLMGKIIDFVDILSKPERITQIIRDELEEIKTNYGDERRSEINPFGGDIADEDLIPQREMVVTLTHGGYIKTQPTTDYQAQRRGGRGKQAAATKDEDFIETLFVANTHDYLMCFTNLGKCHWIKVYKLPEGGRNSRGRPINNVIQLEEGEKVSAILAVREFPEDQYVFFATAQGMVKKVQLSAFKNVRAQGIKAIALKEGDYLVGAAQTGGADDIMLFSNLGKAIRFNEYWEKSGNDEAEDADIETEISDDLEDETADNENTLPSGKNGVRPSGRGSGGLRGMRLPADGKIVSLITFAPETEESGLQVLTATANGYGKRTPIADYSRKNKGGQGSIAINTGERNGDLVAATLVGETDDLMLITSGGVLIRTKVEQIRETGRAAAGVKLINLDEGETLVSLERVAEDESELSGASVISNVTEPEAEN", "T1 sequence (P22118 whole entry partner)": "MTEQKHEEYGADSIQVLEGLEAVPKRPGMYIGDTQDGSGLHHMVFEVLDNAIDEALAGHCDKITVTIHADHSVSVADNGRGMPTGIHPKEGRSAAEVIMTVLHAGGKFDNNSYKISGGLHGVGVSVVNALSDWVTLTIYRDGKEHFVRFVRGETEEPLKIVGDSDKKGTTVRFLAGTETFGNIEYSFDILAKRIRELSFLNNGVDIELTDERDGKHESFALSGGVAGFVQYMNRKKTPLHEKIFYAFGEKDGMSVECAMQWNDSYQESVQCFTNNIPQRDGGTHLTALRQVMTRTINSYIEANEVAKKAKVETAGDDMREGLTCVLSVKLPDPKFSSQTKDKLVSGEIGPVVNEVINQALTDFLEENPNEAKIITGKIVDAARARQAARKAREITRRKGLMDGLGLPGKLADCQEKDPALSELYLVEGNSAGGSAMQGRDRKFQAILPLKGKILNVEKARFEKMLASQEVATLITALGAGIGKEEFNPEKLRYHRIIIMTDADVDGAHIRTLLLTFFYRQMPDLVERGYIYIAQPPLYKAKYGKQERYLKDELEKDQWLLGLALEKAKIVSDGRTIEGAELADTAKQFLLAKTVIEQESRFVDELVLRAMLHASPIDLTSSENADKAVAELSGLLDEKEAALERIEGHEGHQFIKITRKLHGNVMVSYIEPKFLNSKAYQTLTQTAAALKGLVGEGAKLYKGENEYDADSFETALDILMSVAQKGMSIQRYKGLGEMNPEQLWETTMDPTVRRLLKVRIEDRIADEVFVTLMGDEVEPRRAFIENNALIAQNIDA", "experiment": "DNA cleavage assay, GyrA^D95G gyrase", "assay_type": "biochemical", "method": "(§1) Some experiments replaced MgCl2 with an equivalent concentration of CaCl2 (10 mM), or 1.5 mM ATP was added to assay mixtures.\n(§2) Reactions were incubated at 37 °C for 30 min with WT and mutant (GyrA^D90N, GyrA^A92T, GyrA^S91F, GyrA^D95G, or GyrA^S91F/D95G) N. gonorrhoeae gyrase, 10 min with WT N. gonorrhoeae topoisomerase IV, and 20 min with mutant (ParC^D86N, ParC^S88P, ParC^S87N, or ParC^E91G) N. gonorrhoeae topoisomerase IV. Enzyme-DNA cleavage complexes were trapped by adding 2 μL of 5% SDS followed by 2 μL of 250 mM EDTA (pH 8.0). Proteinase K was added (2 μL of a 0.8 mg/mL solution), and reaction mixtures were incubated at 45 °C for 30 min to digest the enzyme. Samples were mixed with 2 μL of loading buffer and heated at 45 °C for 2 min prior to electrophoresis in 1% agarose gels in 40 mM Tris-acetate (pH 8.3), and 2 mM EDTA containing 0.5 μg/mL ethidium bromide. DNA bands were visualized by midrange ultraviolet light and quantified using an Alpha Innotech digital imaging system (Protein Simple). Single-stranded DNA cleavage was monitored by the conversion of negatively supercoiled to nicked plasmid molecules."}, "[3]": {"test_system": "N. gonorrhoeae FA1090E-5 (GyrA^D90N/ParC^D86N)", "experiment": "MIC by agar dilution, GyrA^D90N/ParC^D86N strain", "assay_type": "cell-based, Neisseria gonorrhoeae", "method": "This strain was designated FA1090E-5 (GyrA^D90N/ParC^D86N).\nMinimum inhibitory concentration (MIC) of test compounds was determined by an agar dilution method, the reference testing method for N. gonorrhoeae according to the standards of the Clinical and Laboratory Standards Institute and the CDC."}, "[4]": {"test_system": "N. gonorrhoeae FA1090 (ATCC 700825)", "experiment": "MIC by agar dilution, parental strain FA1090", "assay_type": "cell-based", "settings": "Neisseria gonorrhoeae, ATCC700825, parental strain FA1090, GyrA WT / ParC WT", "method": "A series of isogenic N. gonorrhoeae strains was constructed that carried the specific target mutations GyrA^A92T or GyrA^D90N either alone or in combination with ParC^D86N or GyrA^S91F/D95G in a ciprofloxacin-susceptible strain, FA1090 (ATCC 700825).\nAll N. gonorrhoeae isolates were cultured and grown on GC agar plates or in fastidious broth (Remel, 07664). Minimum inhibitory concentration (MIC) of test compounds was determined by an agar dilution method, the reference testing method for N. gonorrhoeae according to the standards of the Clinical and Laboratory Standards Institute and the CDC. MIC values were determined after incubation at 37 °C for 48 h in 5% CO2."}, "WT N. gonorrhoeae gyrase": {"molecular_target": "T2, WT N. gonorrhoeae gyrase (Neisseria gonorrhoeae, UniProt P48371)", "T2 construct": "His; made in house", "experiment": "DNA cleavage assay, WT gyrase", "assay_type": "biochemical", "method": "as §1, §2"}, "[5]": {"molecular_target": "T3, N. gonorrhoeae gyrase GyrA^A92T (Neisseria gonorrhoeae, UniProt P48371, A92T)", "T3 construct": "His; made in house", "T3 sequence (P48371 whole entry A92T)": "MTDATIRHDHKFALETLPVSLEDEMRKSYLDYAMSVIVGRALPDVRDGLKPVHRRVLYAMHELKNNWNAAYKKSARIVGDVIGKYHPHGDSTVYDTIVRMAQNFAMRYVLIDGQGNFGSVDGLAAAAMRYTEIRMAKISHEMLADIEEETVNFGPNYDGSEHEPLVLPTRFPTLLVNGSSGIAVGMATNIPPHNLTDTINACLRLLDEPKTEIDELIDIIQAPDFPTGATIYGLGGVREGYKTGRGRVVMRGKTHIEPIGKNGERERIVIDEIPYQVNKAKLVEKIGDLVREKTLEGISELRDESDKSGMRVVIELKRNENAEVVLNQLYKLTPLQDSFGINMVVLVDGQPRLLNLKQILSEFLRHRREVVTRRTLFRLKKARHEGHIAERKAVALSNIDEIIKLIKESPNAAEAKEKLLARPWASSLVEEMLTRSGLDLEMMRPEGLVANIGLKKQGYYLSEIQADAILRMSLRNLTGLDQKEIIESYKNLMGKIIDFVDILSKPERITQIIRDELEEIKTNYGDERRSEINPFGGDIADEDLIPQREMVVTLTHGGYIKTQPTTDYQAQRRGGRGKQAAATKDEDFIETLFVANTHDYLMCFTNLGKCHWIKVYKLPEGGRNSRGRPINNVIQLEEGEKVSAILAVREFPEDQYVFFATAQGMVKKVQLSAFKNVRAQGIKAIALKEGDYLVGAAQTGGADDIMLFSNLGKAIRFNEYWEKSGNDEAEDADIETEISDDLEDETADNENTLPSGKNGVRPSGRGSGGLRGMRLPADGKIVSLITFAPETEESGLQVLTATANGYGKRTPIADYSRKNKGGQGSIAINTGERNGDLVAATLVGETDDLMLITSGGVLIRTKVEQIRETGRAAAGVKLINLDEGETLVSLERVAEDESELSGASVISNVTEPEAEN", "T3 sequence (P22118 whole entry partner)": "as the sequence (P22118 whole entry partner) above", "experiment": "DNA cleavage assay, GyrA^A92T gyrase", "assay_type": "biochemical", "method": "as §1, §2"}},
  "data": [
    {"smiles": "O=c1ccc2ncc(=O)n3c2n1C[C@H]3CN1CCC(NCc2cc3c(cn2)OCCC3)CC1", "note": "[gepotidacin]", "values": [
      {"measurement": "fold greater potency (IC50) against topoisomerase IV over gyrase", "setting": "[1]", "value": "~2.8", "unit": "fold"},
      {"measurement": "Adj-Max Cleavage, single-stranded DNA breaks", "setting": "[2]", "value": 17.9, "unit": "%"},
      {"measurement": "EC50", "setting": "[2]; GyrA D95G gyrase, read-out: CC50, single-stranded DNA cleavage", "value": 1300, "unit": "nM"},
      {"measurement": "single-stranded DNA cleavage compared with WT gyrase", "setting": "[2]; GyrA D95G vs WT", "value": "nearly indistinguishable"},
      {"measurement": "MIC", "setting": "[3]; Neisseria gonorrhoeae", "value": "> 64", "unit": "µg/mL"},
      {"measurement": "fold-change in MIC from WT/WT parental strain", "setting": "[3]; strain FA1090E-5 vs FA1090E", "value": "> 128", "unit": "fold"},
      {"measurement": "MIC", "setting": "[4]", "value": 0.125, "unit": "µg/mL"},
      {"measurement": "effect of ATP on potency and maximal DNA cleavage", "setting": "WT N. gonorrhoeae gyrase; 1.5 mM ATP", "value": "little effect"},
      {"measurement": "effect on double-stranded DNA scission", "setting": "WT N. gonorrhoeae gyrase; Mg2+ replaced with Ca2+", "value": "little effect"},
      {"measurement": "EC50", "setting": "WT N. gonorrhoeae gyrase; Mg2+, no ATP, read-out: CC50, single-stranded DNA cleavage", "value": "900 ± 300", "unit": "nM"},
      {"measurement": "Adj-Max Cleavage, single-stranded DNA breaks", "setting": "WT N. gonorrhoeae gyrase; adjusted for baseline cleavage", "value": "~17.1", "unit": "%"},
      {"measurement": "additional enhancement of double-stranded DNA breaks above baseline", "setting": "WT N. gonorrhoeae gyrase; up to 200 μM gepotidacin, up to 180 min", "value": "not observed"},
      {"measurement": "Adj-Max Cleavage, single-stranded DNA breaks", "setting": "[5]", "value": 4.9, "unit": "%"},
      {"measurement": "EC50", "setting": "[5]; GyrA A92T gyrase, read-out: CC50, single-stranded DNA cleavage", "value": 500, "unit": "nM"},
      {"measurement": "fold decrease of adjusted maximal DNA cleavage vs WT", "setting": "[5]; GyrA A92T vs WT", "value": "~3.5", "unit": "fold"}
    ]}
  ]
}
